Test [1] concerns soft rot of Chinese cabbage. Nature of the test: Test for controlling soft rot of Chinese cabbage, Example 2 / Comparative Example 2 (field, cultivar Harebutai 65). Particulars: 150 L/10 a sprayed onto planting holes before planting, 64 days after start. It counts as in vivo. An excerpt: Frequency of the disease=[sigma(number of plants with the onset of the disease at each severity level*index of the onset of the disease)/(plants examined*4)]*100
Disease control value=[1-(frequency of the disease in the treated lot/frequency of the disease in the non-treated lot)]*100
• 0: No onset • 1: Onset in some of outer leaves (shippable) • 2: Onset in outer leaves and some of head leaves (by removing damaged parts, the resulting cabbage can be shipped as small cabbage but is ranked as grade B). • 3: Most of head leaves are inflicted with the onset of the disease or with severer damages (not shippable) • 4: Whole cabbage plant is inflicted with the onset of the disease and is dead.
200 g/l Azoxystrobin (Amistar 20 FLOWABLE [trade name], manufactured by Syngenta Japan K.K.) was adjusted to 500 g ai/10a (0.5 g/m^2, 2500 ml Product/10a) as the amount of the active ingredient and to 150 L/10a as the volume of diluent water.
30% w/w triflumizol (TRIFUMIN WP [trade name], manufactured by Nippon Soda Co., Ltd.) was adjusted to 500 g ai/10a (0.5 g/m^2, 1667 g Product/10a) as the amount of the active ingredient and to 150 L/10a as the volume of diluent water.
100 g/1 cyazofamid (RANMAN PLOWABLE [trade name], manufactured by Ishihara Sangyo Kaisha, Ltd.) was adjusted to 500 g ai/10a (0.5 g/m^2, 5000 ml Product/10a) as the amount of the active ingredient and to 150 L/10a as the volume of diluent water.
50% w/w penthiopyrad (GAIA WG [trade name], manufactured by Mitsui Chemicals Agro, Inc.) was adjusted to 500 g ai/10a (0.5 g/m^2, 1000 g Product/10a) as the amount of the active ingredient and to 150 L/10a as the volume of diluent water.
50 g/l flusulfamide (SCABLOCK SC [trade name], manufactured by Mitsui Chemicals Agro, Inc.) was adjusted to 500 g ai/10a (0.5 g/m^2, 10000 ml Product/10a) as the amount of the active ingredient and to 150 L/10a as the volume of diluent water.
400 g/1 chlorothalonil (Daconil 1000 [the trade name], manufactured by Sumitomo Chemical, Limited) was adjusted to 1000 g ai/10a (1.0 g/m^2, 2500 ml Product/10a) as the amount of the active ingredient and to 150 L/10a as the volume of diluent water.
After spreading an agricultural mulch-sheet and opening planting holes (diameter of about 5 cm) for permanent planting through the mulch-sheet, the spray solutions prepared as described above were sprayed onto the planting holes such that the amount of treated active ingredient of chlorothalonil was 1.0 g/m^2 (150 L per 10a) and the amount of each of the remaining spray solutions was 0.5 g/m^2 (150 L per 10a), followed by air-drying; subsequently, seedlings of Chinese cabbage (cultivar Harebutai 65) grown for 4 weeks in cell mold trays (128 holes/nursery box) were planted such that 19 seedlings were planted in each test lot having an area of 2.4 m^2 with two replications.
(§1) Preparation was performed by diluting streptomycin (Mycin 20 wettable powder solution [under the trade name] manufactured by Hokko Chemical Industry Co., Ltd.) with water to 1/1000.
In a field spread with the agricultural mulch-sheet, Chinese cabbage seedlings (cultivar: Harebutai 65) grown by the same method as in Example 2 were planted by the same method as in Example 2, for spraying the spray solution of streptomycin prepared above in (1) (at each spray volume of 300 L/10a) twice (27 days and 48 days after the planting of the seedlings) on the stems and leaves with a sprayer.
64 days after the start of the tests, all the plants in each lot were examined about the severity level of the disease to assess the frequency of the disease and the disease control value. In the same manner as described above, the frequency of the disease and the disease control value were determined. Additionally, soft rot is a disease with damages hardly controlled, so even a chemical at the level C determined by the tests of the effects can practically be used.

The test system of test [2] is bacteria causing the soft rot (Erwinia carotovora). Briefly: Inhibition test of growth of bacteria causing soft rot, Reference Test Example 3. The format is cell-based. Particulars: for formed colonies (growth state), grade: PSA medium, 27 degrees Celsius, 2 days; for inhibition of growth of Erwinia carotovora (in words): active ingredient concentration of 1,000 ppm. An excerpt:
Inhibition test of growth of bacteria causing soft rot of potato An inhibition test of the growth of bacteria causing the soft rot was done, when a control agent was directly applied to the bacteria causing the soft rot. A given volume of each pesticide of triflumizol (TRIFUMIN WP [trade name] manufactured by Nippon Soda Co., Ltd.), chlorothalonil (Daconil 1000 [trade name], manufactured by Sumitomo Chemical Company, Limited) and streptomycin (Mycin Wettable powder [trade name] manufactured by Hokko Chemical Industry Co., Ltd.) was added together with a suspension of the bacteria causing the soft rot (Erwinia carotovora) to a preliminarily dissolved PSA culture medium (55 degrees Celsius) for subsequent thorough agitation, which was then spread on a plate for culturing at 27 degrees Celsius for 2 days, to examine the growth state. Subsequently, the formed colonies were examined according to the following three grades. • +: at the same level as the level of non-treated lot. Plus or minus: apparently less than the colonies of the non-treated lot. • −: almost no colonies observed.

Test [3] has as its system soft rot of Chinese cabbage. Nature of the test: Test for controlling soft rot of Chinese cabbage, Example 1 / Comparative Example 1 (field, cultivar Muso). The note with it: 250 g ai/10 a, 150 L/10 a sprayed onto planting holes before planting, 54 days after start. It counts as in vivo. How it is done:
200 g/l Azoxystrobin (Amistar 20 FLOWABLE [trade name], manufactured by Syngenta Japan K.K.) was adjusted to 250 g ai/10a (0.25 g/m^2, 1250 ml Product/10a) as the amount of the active ingredient and to 150 L/10a as the volume of diluent water.
100 g/l Cyazofamid (RANMAN FLOWABLE [trade name], manufactured by Ishihara Sangyo Kaisha, Ltd.) was adjusted to 250 g ai/10a (0.25 g/m^2, 2500 ml Product/10a) as the amount of the active ingredient and to 150 L/10a as the volume of diluent water.
177 g/l Amisulbrom (LEIMAY FLOWABLE [trade name], manufactured by Nissan Chemical Industries, Ltd.) was adjusted individually to 250 g ai/10a (0.25 g/m^2, 1412 ml Product/10a) as the amount of the active ingredient and to 150 L/10a as the volume of diluent water.
After spreading an agricultural mulch-sheet and opening planting holes (diameter of about 9 cm) for permanent planting through the mulch-sheet, the spray solutions prepared as described above were sprayed onto the planting holes such that the amount of treated active ingredient of each spray solution was 0.25 g/m^2 (150 L per 10a), followed by air-drying; subsequently, seedlings of Chinese cabbage (cultivar: Muso) grown for 4 weeks in cell mold trays (128 holes/nursery box) were planted such that 30 seedlings were planted in each test lot having an area of 6 m^2 with two replications.
as §1
In a field spread with the agricultural mulch-sheet, Chinese cabbage seedlings (cultivar: Muso) grown by the same method as in Example 1 were planted by the same method as in Example 1, for spraying the spray solution of streptomycin prepared above in (1) (at each spray volume of 300 L/10a) three times (13 days, 20 days and 27 days after the planting of the seedlings) on the stems and leaves.
54 days after the start of the tests, all the plants in each lot were examined about the severity level of the disease; according to the following equations, the ratio of the plants with the onset of the disease, the frequency of the disease, and the disease control value were calculated to determine and rank the effects at A to D levels. Because soft rot is a disease with damages hardly controlled, herein, even a chemical at the level C determined by the tests of the effects can practically be used.
Ratio of the plants with the onset of the disease=(Number of plants with the onset of the disease/number of plants examined)*100
Frequency of the disease=[sigma(number of plants with the onset of the disease at each severity level*index of the onset of the disease)/(plants examined*4)]*100 […]

Test [4] deals with bacteria causing the soft rot (Erwinia carotovora). Briefly: Inhibition test of growth of bacteria causing soft rot, Reference Test Example 1. The format is cell-based. The note with it: for formed colonies (growth state), grade: PSA medium, 25 degrees Celsius, 4 days. How it is done:
(§2) An inhibition test of the growth of bacteria causing the soft rot was done, when a control agent was directly applied to the bacteria causing the soft rot. A given volume of each pesticide of cyazofamid (RANMAN 400SC [trade name] manufactured by Ishihara Sangyo Kaisha, Ltd.), amisulbrom (LEIMAY FLOWABLE [trade name], manufactured by Nissan Chemical Industries, Ltd.) and streptomycin (Mycin Wettable powder [trade name] manufactured by Hokko Chemical Industry Co., Ltd.) was added together with a suspension of the bacteria causing the soft rot (Erwinia carotovora) to a preliminarily dissolved PSA culture medium (55 degrees Celsius) for subsequent thorough agitation, which was then spread on a plate for culturing at 25 degrees Celsius for 4 days, to examine the growth state. Subsequently, the formed colonies were examined according to the following three grades. • +: at the same level as the level of non-treated lot.
(§3) Plus or minus: apparently less than the colonies of the non-treated lot. • −: almost no colonies observed.

Test [5] has the same test system. Briefly: Inhibition test of growth of bacteria causing soft rot, Reference Test Example 2. The note with it: for formed colonies (growth state), grade: PSA medium, 27 degrees Celsius, 2 days; for inhibition of growth of Erwinia carotovora (in words): active ingredient concentration of 1,000 ppm. The format is cell-based.
Excerpt: as §2, with “Inhibition test of growth of bacteria causing soft rot of potato An” for “An”, “azoxystrobin (Amistar-20” for “cyazofamid (RANMAN 400SC [trade name] manufactured by Ishihara Sangyo Kaisha, Ltd.), amisulbrom (LEIMAY”, “Syngenta Japan K.K.), penthiopyrad (GAIA WG [trade name], manufactured by Mitsui Chemicals Agro, Inc.), flusulfamide (SCABLOCK SC [trade name] manufactured by Mitsui Chemicals Agro, Inc.),” for “Nissan Chemical Industries, Ltd.)”, “27” for “25”, “2” for “4”
as §3

This note sets out measurements from patent publication US20130123287A1, “CONTROL AGENT FOR SOFT ROT AND CONTROL METHOD FOR THE SAME” (ISHIHARA SANGYO KAISHA, LTD., priority 2010, published 2013).

Take `CCCOC/C(=N\c1ccc(Cl)cc1C(F)(F)F)n1ccnc1` [Triflumizol, (E)-4-chloro-alpha,alpha,alpha-trifluoro-N-[1-imidazol-1-yl-2-propoxyethylidene]-o-to luidine]: the Determination of effect entry in test [1] (500 g ai/10 a) was “C (C: Effective at low level (21 to 40 disease control value))”. The “formed colonies (growth state), grade” value in test [2] (100 ppm active ingredient) was “+, +”; in test [2] (500 ppm active ingredient), “+, +”; in test [2] (1000 ppm active ingredient), “+, +”. The “inhibition of growth of Erwinia carotovora (in words)” value (from here on “inhibition”) in test [2] is reported as “never inhibited the growth”.

On to `N#Cc1c(Cl)c(Cl)c(Cl)c(C#N)c1Cl` [Chlorothalonil, 2,4,5,6-tetrachloro-1,3-benzene dicarbonitrile], for which the Determination of effect entry in test [1] (1000 g ai/10 a) is given as “B (B: Effective (41 to 60 disease control value))”. Also, the “formed colonies (growth state), grade” value in test [2] (100 ppm active ingredient) was “+, +”; in test [2] (500 ppm active ingredient), “+, +”; in test [2] (1000 ppm active ingredient), “+, +”. In test [2], the “inhibition” value is “never inhibited the growth”.

With `Cc1c(Br)c2ccc(F)cc2n1S(=O)(=O)c1ncn(S(=O)(=O)N(C)C)n1` [Amisulbrom, 3-[(3-bromo-6-fluoro-2-methyl-1H-indol-1-yl)sulfonyl]-N,N-dimethyl-1H-1,2,4-triazole-1-sulfoneamide], the Determination of effect result in test [3] is given as “C (C: Effective at low level (21 to 40 disease control value))”. In addition, the “formed colonies (growth state), grade” value in test [4] (100 ppm active ingredient) is “+, +”; in test [4] (500 ppm active ingredient), “+, +”; in test [4] (1000 ppm active ingredient) it was “+, +”. In test [4] (active ingredient concentration of 1,000 ppm), the “inhibition” value is reported as “never inhibited the growth”.

In the case of `O=[N+]([O-])c1ccc(NS(=O)(=O)c2ccc(Cl)c(C(F)(F)F)c2)c(Cl)c1` [Flusulfamide, 2′, 4-dichloro-alpha,alpha,alpha-trifluoro-4′-nitro-m-toluenesulfone anilide], the Determination of effect result in test [1] (500 g ai/10 a) was “B (B: Effective (41 to 60 disease control value))”. The “formed colonies (growth state), grade” value in test [5] (100 ppm active ingredient) was “+, +”; in test [5] (500 ppm active ingredient) it was “+, +”; in test [5] (1000 ppm active ingredient) it was “+, +”. Moreover, the “inhibition” value in test [5] is given as “never inhibited the growth”.

Consider `CC(C)CC(C)c1sccc1NC(=O)c1cn(C)nc1C(F)(F)F` (racemic) [Penthiopyrad, (RS)-N-[2-(1,3-dimethylbutyl)-3-thienyl]-1-methyl-3-(trifluoromethyl)-1H-pyrazole-4-carboxamide], for which the Determination of effect entry in test [1] (500 g ai/10 a) was “C (C: Effective at low level (21 to 40 disease control value))”. The “formed colonies (growth state), grade” value is reported as “+, +” in test [5] (100 ppm active ingredient); “+, +” in test [5] (500 ppm active ingredient); “+, +” in test [5] (1000 ppm active ingredient). Moreover, the “inhibition” value in test [5] is “never inhibited the growth”.
